The values below are quoted from earlier work in patent US20090246264A1, “Transdermal Tobacco Alkaloid Patch” (Fertin Pharma, priority 2005, published 2009).

For this series the following is noted: pure nicotine placed on the skin of an ordinary human being.

Regarding `CN1CCCC1c1cccnc1` (stereo not shown) [nicotine], the lethal dose was 50 mg.
